In patent publication US20250145628A1, “PYRAZOLOPYRIMIDINES, COMPOSITIONS COMPRISING THEM AND USES THEREOF” (Novo Nordisk A/S, priority 2022, published 2025):
pIC50: −log10 of the molar value.

Tests used:
[1] = target: T1, human CB1 receptor (Homo sapiens, UniProt P21554); test: bioSensAll GAPL-Gi2 BRET biosensor assay (antagonism of CP-55,940); format: cell-based; conditions: HEK293 cells transfected with hCB1 and GAPL-Gi2 biosensor, EC75 of CP-55,940 (0.1 nM), overnight incubation, read-out: CB1 wt Gi2 IC50
T1 construct: expressed in transfected cells; host or cells: HEK293
T1 sequence (P21554 whole entry): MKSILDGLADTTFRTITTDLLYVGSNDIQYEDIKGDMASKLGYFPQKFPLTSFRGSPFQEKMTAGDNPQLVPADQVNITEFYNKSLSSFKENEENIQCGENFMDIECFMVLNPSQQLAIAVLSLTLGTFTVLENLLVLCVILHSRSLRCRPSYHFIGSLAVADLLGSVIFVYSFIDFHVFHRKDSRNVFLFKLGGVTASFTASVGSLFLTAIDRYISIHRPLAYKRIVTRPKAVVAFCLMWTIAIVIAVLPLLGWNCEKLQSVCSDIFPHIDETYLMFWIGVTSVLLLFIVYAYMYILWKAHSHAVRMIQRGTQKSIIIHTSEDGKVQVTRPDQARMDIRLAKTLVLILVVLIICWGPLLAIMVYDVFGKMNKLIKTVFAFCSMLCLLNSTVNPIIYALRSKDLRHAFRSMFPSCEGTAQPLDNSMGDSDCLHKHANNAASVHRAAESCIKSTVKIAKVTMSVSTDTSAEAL
Protocol: (§1) Using polyethylenimine (PEI) transfection agent, HEK293 cells were transfected in suspension with the human CB1 or CB1b receptor and one of the following bioSensAll® assays: GAPL-Gi2, or β-arrestin plasma membrane (PM) translocation biosensor (+GRK2). Cells were directly seeded in 96-well plates immediately following transfection.
(§2) Cells were incubated with coelenterazine (luciferase substrate) and different test compounds prior to the measurement of BRET signals.
i) GAPL sensors are used to monitor the activation of heterotrimeric G proteins at the plasma membrane upon receptor stimulation. Specifically, these multimolecular BRET sensors detect the plasma membrane recruitment of proteins that interact with active Ga subunits in a G protein family-selective manner. G protein activation following receptor stimulation generally leads to an increase in the BRET signal.
(§3) HEK293 cells were maintained in Dulbecco's Modified Eagle Medium (DMEM) (Wisent; cat #319-030-CL: without sodium pyruvate, with 4.5 g/L glucose, without L-glutamine) supplemented with 1% penicillin-streptomycin (Wisent; cat #450-201-EL) and 2 or 10% fetal bovine serum (Wisent cat #090150).
(§4) HEK293 cells were co-transfected with hCB1 or hCB1b and one of the above-listed bioSensAll® assays. For each transfection condition: • the total amount of transfected DNA was kept constant at 1 μg per mL of cell culture to be transfected; whenever necessary, salmon sperm DNA (Invitrogen, cat #15632011) was used as ‘carrier’ DNA to supplement plasmid DNA (i.e., biosensor and receptor); • the PEI (polyethylenimine 25 kDa linear, PolyScience, cat #23966) to DNA ratio (ug:ug) was fixed at 3:1.
(§5) Transfections were carried out as follows: • DNA and PEI were first diluted separately in 150 mM NaCl. The volume of the diluent in each tube corresponds to 5% of the cell culture volume to be transfected. • Once DNA and PEI were diluted, the PEI-containing solution was added to the DNA solution and the DNA/PEI mixture immediately vortexed for 5 seconds. • The DNA/PEI mixture was incubated for at least 20 minutes at room temperature to allow for the formation of DNA/PEI complexes. • During the incubation, HEK293 cells were detached, counted and re-suspended in culture medium (composition specified above). • At the end of the incubation period, the DNA/PEI mixture was added to the cells. • Cells were finally distributed in 96-well plates (White Opaque 96-well/Microplates, Greiner, cat #655083 or CulturPlate-96, White Opaque 96-well Microplate, PerkinElmer, cat #6005688) at a density of 30 000 cells per well.
(§6) At ˜48 hours post-transfection: • Using 450-Select TS Biotek plate washer, culture medium was aspirated and replaced with 100 μl of Hank's Balanced Salt Solution buffer (HBSS) (Wisent, cat #319-067CL: without red phenol; with sodium bicarbonate, with calcium and magnesium, with HEPES) per well. This process was performed a total of two times (i.e., 2 washes). • After the washing step, the HP D300 digital dispenser (Tecan) was used to inject increasing doses (12) of test compounds (ranging from 0-600 nM) to wells. Three to five minutes later, an EC75 of CP-55,940 (0.1 nM for GAPL-Gi2 assay; 100 nM for β-arrestin PM translocation biosensor (+GRK2)) was added to columns 2-12 of each 96-well plate.
(§7) BRET signals were determined by calculating the ratio of light emitted by GFP-acceptor (515 nm) over light emitted by luciferase-donor (400 nm). All BRET ratios were standardized using the equation below with pre-established BRET values for positive and negative controls. The standardized BRET ratio is referred to as universal BRET (uBRET).
(§8) Resulting dose-response curves were fitted using the four-parameter logistic non-linear regression model in GraphPad Prism 9.

[2] = target: T1, human CB1 receptor; test: bioSensAll β-arrestin plasma membrane translocation BRET biosensor (+GRK2) assay (antagonism of CP-55,940); format: cell-based; conditions: HEK293 cells transfected with hCB1 and β-arrestin PM translocation biosensor (+GRK2), EC75 of CP-55,940 (100 nM), overnight incubation, read-out: CB1 wt βarr2 IC50
Protocol: as §1, §2
ii) The multimolecular β-arrestin membrane recruitment biosensors allow for real-time spatio-temporal monitoring of β-arrestin 1 and β-arrestin 2 following GPCR activation. Specifically, these β-arrestin sensors were designed to detect the recruitment of proteins to the plasma membrane (β-arrestin PM) with localization to compartment resulting in an increased BRET signal.
as §3, §4, §5, §6, §7, §8

pIC50 [1]	pIC50 [2]	SMILES
6.80	< 5.00	NC(=O)CC1CN(c2cc(N3CCC[C@H]3C(N)=O)nc3c(-c4ccc(Cl)cc4)c(-c4ccccc4Cl)nn23)C1 [Compound 35, (2S)-1-[7-[3-(2-amino-2-oxo-ethyl)azetidin-1-yl]-2-(2-chlorophenyl)-3-(4-chlorophenyl)pyrazolo[1,5-a]pyrimidin-5-yl]pyrrolidine-2-carboxamide]
6.82	6.49	CCNC(=O)CN(C)c1cc(N2CC[C@H](CC(N)=O)C2)n2nc(-c3ccccc3Cl)c(-c3ccc(Cl)cc3)c2n1 [Compound 36, 2-[(3R)-1-[2-(2-chlorophenyl)-3-(4-chlorophenyl)-5-[[2-(ethylamino)-2-oxo-ethyl]-methyl-amino]pyrazolo[1,5-a]pyrimidin-7-yl]pyrrolidin-3-yl]acetamide]
8.23	7.45	CC1(C(N)=O)CCN(c2cc(N3CCC[C@H]3C(N)=O)nc3c(-c4ccc(Cl)cc4)c(-c4ccccc4Cl)nn23)CC1 [Compound 37, 1-[5-[(2S)-2-carbamoylpyrrolidin-1-yl]-2-(2-chlorophenyl)-3-(4-chlorophenyl)pyrazolo[1,5-a]pyrimidin-7-yl]-4-methyl-piperidine-4-carboxamide]
8.61	7.96	CNC(=O)CCN(C)c1cc(N2CCC(C)(C(N)=O)CC2)n2nc(-c3ccccc3Cl)c(-c3ccc(Cl)cc3)c2n1 [Compound 38, 1-[2-(2-chlorophenyl)-3-(4-chlorophenyl)-5-[methyl-[3-(methylamino)-3-oxo-propyl]amino]pyrazolo[1,5-a]pyrimidin-7-yl]-4-methyl-piperidine-4-carboxamide]
7.46	6.97	CNC(=O)CCN(C)c1cc(N2CC(CC(N)=O)C2)n2nc(-c3ccccc3Cl)c(-c3ccc(Cl)cc3)c2n1 [Compound 39, 3-[[7-[3-(2-amino-2-oxo-ethyl)azetidin-1-yl]-2-(2-chlorophenyl)-3-(4-chlorophenyl)pyrazolo[1,5-a]pyrimidin-5-yl]-methyl-amino]-N-methyl-propanamide]
7.76	6.95	CN(CP(C)(C)=O)c1cc(N2CCC(C)(C(N)=O)CC2)n2nc(-c3ccccc3Cl)c(-c3ccc(Cl)cc3)c2n1 [Compound 40, 1-[2-(2-chlorophenyl)-3-(4-chlorophenyl)-5-[dimethylphosphorylmethyl (methyl)amino]pyrazolo[1,5-a]pyrimidin-7-yl]-4-methyl-piperidine-4-carboxamide]
7.03	6.79	CNC(=O)CCN(C)c1cc(N2CCC[C@@H](C(N)=O)C2)n2nc(-c3ccccc3Cl)c(-c3ccc(Cl)cc3)c2n1 [Compound 41, (3R)-1-[2-(2-chlorophenyl)-3-(4-chlorophenyl)-5-[methyl-[3-(methylamino)-3-oxo-propyl]amino]pyrazolo[1,5-a]pyrimidin-7-yl]piperidine-3-carboxamide]
8.78	8.33	CCOC1(C(N)=O)CCN(c2cc(OCC(C)(C)O)nc3c(-c4ccc(Cl)cc4)c(-c4ccccc4Cl)nn23)CC1 [Compound 42, 1-[2-(2-chlorophenyl)-3-(4-chlorophenyl)-5-(2-hydroxy-2-methyl-propoxy)pyrazolo[1,5-a]pyrimidin-7-yl]-4-ethoxy-piperidine-4-carboxamide]
9.01	8.56	CCOC1(C(N)=O)CCN(c2cc(N(C)CCO)nc3c(-c4ccc(Cl)cc4)c(-c4ccccc4Cl)nn23)CC1 [Compound 43, 1-[2-(2-chlorophenyl)-3-(4-chlorophenyl)-5-[2-hydroxyethyl(methyl)amino]pyrazolo[1,5-a]pyrimidin-7-yl]-4-ethoxy-piperidine-4-carboxamide]
8.41	7.84	CCOC1(C(N)=O)CCN(c2cc(N(C)CC(C)(C)O)nc3c(-c4ccc(Cl)cc4)c(-c4ccccc4Cl)nn23)CC1 [Compound 44, 1-[2-(2-chlorophenyl)-3-(4-chlorophenyl)-5-[(2-hydroxy-2-methyl-propyl)-methyl-amino]pyrazolo[1,5-a]pyrimidin-7-yl]-4-ethoxy-piperidine-4-carboxamide]
8.40	8.06	CC(C)(O)COc1cc(-c2ccc(C(F)(F)F)nc2)n2nc(-c3ccccc3Cl)c(-c3ccc(Cl)cc3)c2n1 [Compound 45, 1-[2-(2-chlorophenyl)-3-(4-chlorophenyl)-7-[6-(trifluoromethyl)-3-pyridyl]pyrazolo[1,5-a]pyrimidin-5-yl]oxy-2-methyl-propan-2-ol]
8.42	7.52	CCNC(=O)CN(C)c1cc(N2CCC(C)(C(N)=O)CC2)n2nc(-c3ccccc3Cl)c(-c3ccc(Cl)cc3)c2n1 [Compound 46, 1-[2-(2-chlorophenyl)-3-(4-chlorophenyl)-5-[[2-(ethylamino)-2-oxo-ethyl]-methyl-amino]pyrazolo[1,5-a]pyrimidin-7-yl]-4-methyl-piperidine-4-carboxamide]
7.47	6.88	CCNC(=O)CNc1cc(N2CCC(C)(C(N)=O)CC2)n2nc(-c3ccccc3Cl)c(-c3ccc(Cl)cc3)c2n1 [Compound 47, 1-[2-(2-chlorophenyl)-3-(4-chlorophenyl)-5-[[2-(ethylamino)-2-oxo-ethyl]amino]pyrazolo[1,5-a]pyrimidin-7-yl]-4-methyl-piperidine-4-carboxamide]
8.41	7.71	CCNC(=O)CN(C)c1cc(N2CCC(OCC)(C(N)=O)CC2)n2nc(-c3ccccc3Cl)c(-c3ccc(Cl)cc3)c2n1 [Compound 48, 1-[2-(2-chlorophenyl)-3-(4-chlorophenyl)-5-[[2-(ethylamino)-2-oxo-ethyl]-methyl-amino]pyrazolo[1,5-a]pyrimidin-7-yl]-4-ethoxy-piperidine-4-carboxamide]
8.04	7.60	CC(C)(O)CNc1cc(N2CCC(C)(C(N)=O)CC2)n2nc(-c3ccccc3Cl)c(-c3ccc(Cl)cc3)c2n1 [Compound 49, 1-[2-(2-chlorophenyl)-3-(4-chlorophenyl)-5-[(2-hydroxy-2-methyl-propyl)amino]pyrazolo[1,5-a]pyrimidin-7-yl]-4-methyl-piperidine-4-carboxamide]
8.66	8.32	COc1ccc(-c2cc(N3CCC[C@H]3CO)nc3c(-c4ccc(Cl)cc4)c(-c4ccc(C#N)cc4)nn23)cc1 [Compound 50, 4-[3-(4-chlorophenyl)-5-[(2S)-2-(hydroxymethyl)pyrrolidin-1-yl]-7-(4-methoxyphenyl)pyrazolo[1,5-a]pyrimidin-2-yl]benzonitrile]
9.02	8.76	CC(C)(O)COc1cc(N2CC(C)(C#N)C2)n2nc(-c3ccc(C#N)nc3)c(-c3ccc(Cl)cc3)c2n1 [Compound 51, 5-[3-(4-chlorophenyl)-7-(3-cyano-3-methyl-azetidin-1-yl)-5-(2-hydroxy-2-methyl-propoxy)pyrazolo[1,5-a]pyrimidin-2-yl]pyridine-2-carbonitrile]
8.83	8.59	COC1(C)CN(c2cc(OCC(C)(C)O)nc3c(-c4ccc(Cl)cc4)c(-c4ccc(C#N)nc4)nn23)C1 [Compound 52, 5-[3-(4-chlorophenyl)-5-(2-hydroxy-2-methyl-propoxy)-7-(3-methoxy-3-methyl-azetidin-1-yl)pyrazolo[1,5-a]pyrimidin-2-yl]pyridine-2-carbonitrile]
